{"source": "patent US20220193209A1", "about": "“COMPOSITIONS AND METHODS FOR REACTIVATING LATENT IMMUNODEFICIENCY VIRUS AND/OR TREATING IMMUNODEFICIENCY VIRUS INFECTION” (The J. David Gladstone institutes, a testamentary trust …, priority 2019, published 2022)", "key": {"[1]": {"tested_on": "latent HIVNL4-3 Luciferase reporter virus in primary CD4+ T cells", "test": "Luciferase reporter HIV reactivation in primary CD4+ T cells", "assay_type": "cell-based, HIV-1", "conditions": "6 days after infection, increasing concentrations", "procedure": "For reactivation of latent HIV-1 provirus, cells were counted and collected as pellets by centrifugation at 1500 rpm for 10 min. Cells were then plated in 96-well U-bottom plates at 1×10^6 per 200 μl in the presence of 30 μM Raltegravir (Santa Cruz Biotechnology) and the indicated activator. Cells were harvested 48 h after stimulation, washed one time with PBS, and lysed in 60 μl of Passive Lysis Buffer (Promega). After 15 min of lysis, the luciferase activity in cell extracts was quantified with a Perkin Elmer EnSpire 2300 Multimode plate reader after mixing 20 μl of lysate with 100 μl of substrate (Luciferase Assay System-Promega). Relative light units (RLU) were normalized to protein content determined by Bradford assay (BioRad). Data represent average (±SD) of three technical replicates per donor. Cell viability was measured with CellTiter-Blue Cell Viability Assay (Promega).\nHIV reactivation was measured by luciferase activity and cell viability by flow cytometry."}, "FOXO4": {"target": "T1, FOXO4 (Homo sapiens, UniProt P98177)", "T1 construct": "performed against the FOXO isoforms expressed in K562 cells; endogenous in cells; host or cells: K562", "T1 sequence (P98177 whole entry, canonical isoform)": "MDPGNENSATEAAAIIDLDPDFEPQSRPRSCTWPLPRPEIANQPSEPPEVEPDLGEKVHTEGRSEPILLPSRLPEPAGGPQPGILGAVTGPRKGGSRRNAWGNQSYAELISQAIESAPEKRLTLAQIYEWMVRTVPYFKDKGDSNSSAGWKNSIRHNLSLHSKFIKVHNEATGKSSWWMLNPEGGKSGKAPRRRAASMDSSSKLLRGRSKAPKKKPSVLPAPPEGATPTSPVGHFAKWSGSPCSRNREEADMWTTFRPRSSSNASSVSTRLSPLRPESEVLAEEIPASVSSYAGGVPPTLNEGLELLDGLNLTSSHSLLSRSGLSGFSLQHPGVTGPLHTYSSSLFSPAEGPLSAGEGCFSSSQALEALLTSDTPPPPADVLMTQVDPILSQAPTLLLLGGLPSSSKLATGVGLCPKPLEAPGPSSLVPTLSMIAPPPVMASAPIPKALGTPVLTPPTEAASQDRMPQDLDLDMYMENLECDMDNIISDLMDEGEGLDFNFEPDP", "test": "Cellular Thermal Shift Assay (CETSA) in K562 cells, FOXO4", "assay_type": "binding", "conditions": "1 μM", "description": "K562 cells (ATCC) were maintained in appropriate volume of RPMI medium supplemented with 10% fetal bovine serum (Serum Plus—II, Sigma MO, USA), 100 units/mL penicillin and 100 […] (Corning, VA, USA). Short-term passages (<15) were used for all experiments. For CETSA, K562 cell were freshly seeded the day before the experiment. The day of experiment, equal numbers of cells were counted by Moxi Mini automated cell counter (Orflo) and 0.6×10^6 cells per data point were seeded in T-25 cell culture flasks (VWR, PA, USA) in appropriate volume of culture medium. […] The supernatants were transferred to new microcentrifuge tubes and analyzed by SDS-PAGE followed by immunoblotting analysis. […] Immunoblotting results were subjected to densitometric analysis (Image J) and melting temperatures of FOXO1, FOXO3 and FOXO4 were determined by Prism 7 (GraphPad) using nonlinear least-squares regression fit to Y=100/(1+10^(Log IC50−X)*H), where H=Hill slope (variable). The viability of the cells was assessed in triplicate by trypan blue exclusion.\nWhether the effect of AS1842856 was mediated by its interaction with FOXO1 was confirmed. […] AS1842856-FOXO binding was considered ‘positive’ if there was a significant change in the thermal profile of the protein between the presence and the absence of the drug assessed by western blot (FIG. 2, Panel A). […]"}, "[2]": {"tested_on": "HIV latency establishment (HIVGKO) in primary CD4+ T cells", "test": "HIVGKO latency establishment in primary resting CD4+ T cells", "assay_type": "cell-based, HIV-1", "conditions": "increasing doses, 72 hours"}, "[3]": {"tested_on": "HIV-1 latency establishment (HIVGKO reporter virus) in K562 cells", "test": "HIVGKO dual-color reporter latency establishment in K562 cells (FACS)", "assay_type": "cell-based", "excerpt": "While the effect of FOXO1 inhibitor treatment on productive infection has been tested (Trinite, B. et al. PLoS One 9, (2014)), its effect on latent HIV previously remained unknown. To test the potential of FOXO1 inhibition to affect HIV-1 latency, the new second-generation dual-color reporter virus HIVGKO (LTR-HIV-Δ-env-nefATG-csGFP-EF1α-mKO2) and the FOXO1 inhibitor AS1842856 were employed (FIG. 1, Panel A). In this system, latently-infected K562 cells express the mKO2 fluorophore, while cells containing a productive and active virus express both mKO2 and GFP fluorophores, the latter controlled by the HIV-1 LTR. […] Concomitantly, the proportion of actively infected cells increased. […] Thus, FOXO1 inhibition prevented HIV-1 latency establishment and increased the ratio between actively and latently infected cells.\nBriefly, K562 cells were treated with increasing concentrations of the FOXO1 inhibitor AS1842856 just after HIVGKO infection. After 3-4 days, the percentage of latent cells and productive cells were quantified by FACS. In left panel, amount of productive or latent cells relative to the total infection rate (bars) and cell viability (dots). In the right panel, ratios of productive versus latent populations upon increasing concentrations of AS1842856 treatments. Data are represented as mean f SD of triplicate values, representative of three independent experiments. […]"}}, "data": [{"smiles": "CCn1cc(C(=O)O)c(=O)c2c(N)c(F)c(NC3CCCCC3)cc21", "note": "[AS1842856, 5-amino-7-(cyclohexylamino)-1-ethyl-6-fluoro-4-oxo-1,4-dihydro-quinoline-3-carboxylic acid]", "values": [{"measurement": "luciferase expression (HIV reactivation)", "setting": "[1]", "result": "reactivated luciferase expression"}, {"measurement": "primary T-cell viability", "setting": "primary CD4+ T cells", "result": "No changes"}, {"measurement": "change in FOXO4 melting curve", "setting": "FOXO4", "result": "no changes"}, {"measurement": "productive infection and establishment of latency", "setting": "[2]", "result": "promoted productive infection and decreased the establishment of latency"}, {"measurement": "IC50", "setting": "[3]; Human immunodeficiency virus 1, K562, read-out: IC50 observed in the cell culture system", "result": 0.06, "unit": "µM"}, {"measurement": "proportion of latently infected cells", "setting": "[3]; K562, increasing concentrations", "result": "decreased"}]}]}
